Experimental data taken from patent US20080009418A1, “Selective Inhibitors” (Alchemia LTD., priority 2004, published 2008).

Columns and labels:
[1] = molecular target: T1, Human neuropeptide Y (NPY-Y1) (Homo sapiens, UniProt P25929); test: Radioligand binding, human neuropeptide Y NPY-Y1 membranes, FlashPlate, [125I]-PYY; details: compound at 10 μM; for A9: inhibition of radioligand binding: [125I]-PYY
T1 construct: purchased Perkin Elmer Biosignal
T1 sequence (P25929 1-384): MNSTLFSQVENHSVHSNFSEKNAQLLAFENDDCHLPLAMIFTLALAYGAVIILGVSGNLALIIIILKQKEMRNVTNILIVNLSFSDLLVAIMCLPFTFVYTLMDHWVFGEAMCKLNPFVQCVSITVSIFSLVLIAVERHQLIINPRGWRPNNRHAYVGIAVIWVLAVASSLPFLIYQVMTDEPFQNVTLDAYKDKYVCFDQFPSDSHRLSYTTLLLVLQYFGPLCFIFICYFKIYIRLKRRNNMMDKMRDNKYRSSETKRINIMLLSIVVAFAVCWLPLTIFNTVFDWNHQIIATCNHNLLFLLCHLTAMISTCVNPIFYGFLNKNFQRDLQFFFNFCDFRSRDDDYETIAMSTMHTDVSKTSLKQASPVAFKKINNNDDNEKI
Method in brief: (§1)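 Cloned human receptor membranes were coated onto FlashPlate wells and incubated with radioligand and compound (added from a 0.5 mM DMSO daughter plate) for 1 hour at room temperature in the dark. Scintillation counting gave percent inhibition, with DMSO defining total and reference ligand defining non-specific binding.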

Human Melanocortin (MC3) = molecular target: T2, Human Melanocortin (MC3) (Homo sapiens, UniProt P41968); test: Radioligand binding, human melanocortin MC3 membranes, FlashPlate, [125I]-NDP-αMSH; details: compound at 10 μM; for A3 radioligand binding inhibition: human melanocortin MC3 membranes; for A3: inhibition of radioligand binding: [125I]-NDP-αMSH
T2 construct: purchased Perkin Elmer Biosignal
T2 sequence (P41968 whole entry): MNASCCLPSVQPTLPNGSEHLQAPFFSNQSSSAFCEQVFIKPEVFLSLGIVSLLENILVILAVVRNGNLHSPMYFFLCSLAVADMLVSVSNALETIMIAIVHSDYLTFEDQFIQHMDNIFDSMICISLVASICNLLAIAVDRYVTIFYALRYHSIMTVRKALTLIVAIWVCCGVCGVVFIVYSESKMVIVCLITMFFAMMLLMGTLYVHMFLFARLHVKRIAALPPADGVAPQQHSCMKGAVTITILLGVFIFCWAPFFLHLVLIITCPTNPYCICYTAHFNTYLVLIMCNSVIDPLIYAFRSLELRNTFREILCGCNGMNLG
Method in brief: as §1

Human melanocortin (MC5) = molecular target: T3, Human melanocortin (MC5) (Homo sapiens, UniProt P33032); test: Radioligand binding, human melanocortin MC5 membranes, FlashPlate, [125I]-NDP-αMSH; details: compound at 10 μM; for A5 radioligand binding inhibition: human melanocortin MC5 membranes; for A5: inhibition of radioligand binding: [125I]-NDP-αMSH
T3 construct: purchased Perkin Elmer Biosignal
T3 sequence (P33032 whole entry): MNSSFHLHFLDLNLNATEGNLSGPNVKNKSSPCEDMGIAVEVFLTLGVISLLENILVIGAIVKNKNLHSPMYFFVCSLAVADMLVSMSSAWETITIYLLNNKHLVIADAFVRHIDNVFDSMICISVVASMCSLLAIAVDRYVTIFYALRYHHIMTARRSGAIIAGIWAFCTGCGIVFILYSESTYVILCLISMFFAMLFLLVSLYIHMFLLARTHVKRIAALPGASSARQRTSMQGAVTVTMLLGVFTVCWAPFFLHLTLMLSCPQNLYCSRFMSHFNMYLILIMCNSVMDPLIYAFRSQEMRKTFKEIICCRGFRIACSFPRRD
Method in brief: as §1

Human opioid (ORL1) = molecular target: T4, Human opioid (ORL1) (Homo sapiens, UniProt P41146); test: Radioligand binding, human opioid ORL1 membranes, FlashPlate, [125I]-Nociceptin; details: compound at 10 μM; for A10: inhibition of radioligand binding: [125I]-Nociceptin
T4 construct: purchased Perkin Elmer Biosignal
T4 sequence (P41146 whole entry): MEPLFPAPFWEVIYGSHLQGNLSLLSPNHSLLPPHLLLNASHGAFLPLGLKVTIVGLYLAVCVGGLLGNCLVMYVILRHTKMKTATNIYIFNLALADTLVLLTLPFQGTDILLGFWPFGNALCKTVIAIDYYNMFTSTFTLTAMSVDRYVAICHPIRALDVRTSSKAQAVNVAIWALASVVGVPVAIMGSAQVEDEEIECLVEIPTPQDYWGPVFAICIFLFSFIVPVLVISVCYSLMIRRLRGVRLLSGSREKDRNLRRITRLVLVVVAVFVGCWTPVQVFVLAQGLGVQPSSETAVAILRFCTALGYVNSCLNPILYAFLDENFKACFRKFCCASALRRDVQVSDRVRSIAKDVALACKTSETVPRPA
Method in brief: as §1

Human Melanocortin (MC4) = molecular target: T5, Human Melanocortin (MC4) (Homo sapiens, UniProt P32245); test: Radioligand binding, human melanocortin MC4 membranes, FlashPlate, [125I]-NDP-αMSH; details: compound at 10 μM; for A4 radioligand binding inhibition: human melanocortin MC4 membranes; for A4: inhibition of radioligand binding: [125I]-NDP-αMSH
T5 construct: purchased Perkin Elmer Biosignal
T5 sequence (P32245 whole entry): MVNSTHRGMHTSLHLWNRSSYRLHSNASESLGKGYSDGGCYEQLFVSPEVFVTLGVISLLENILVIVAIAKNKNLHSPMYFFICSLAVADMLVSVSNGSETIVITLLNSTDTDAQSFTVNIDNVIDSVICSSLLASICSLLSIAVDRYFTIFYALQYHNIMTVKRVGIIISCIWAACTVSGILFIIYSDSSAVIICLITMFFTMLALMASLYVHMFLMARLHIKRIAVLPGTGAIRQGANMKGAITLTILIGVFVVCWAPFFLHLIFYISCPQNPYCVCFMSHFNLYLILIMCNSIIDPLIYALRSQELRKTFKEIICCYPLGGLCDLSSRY
Method in brief: as §1

Human μ-opioid (MOP) = molecular target: T6, Human μ-opioid (MOP) (Homo sapiens, UniProt P35372); test: Radioligand binding, human μ-opioid (MOP) membranes, FlashPlate, [3H]-Naloxone; details: compound at 10 μM; for A7 radioligand binding inhibition: human μ-opioid (MOP) membranes; for A7: inhibition of radioligand binding: [3H]-Naloxone
T6 construct: purchased Perkin Elmer Biosignal
T6 sequence (P35372 whole entry): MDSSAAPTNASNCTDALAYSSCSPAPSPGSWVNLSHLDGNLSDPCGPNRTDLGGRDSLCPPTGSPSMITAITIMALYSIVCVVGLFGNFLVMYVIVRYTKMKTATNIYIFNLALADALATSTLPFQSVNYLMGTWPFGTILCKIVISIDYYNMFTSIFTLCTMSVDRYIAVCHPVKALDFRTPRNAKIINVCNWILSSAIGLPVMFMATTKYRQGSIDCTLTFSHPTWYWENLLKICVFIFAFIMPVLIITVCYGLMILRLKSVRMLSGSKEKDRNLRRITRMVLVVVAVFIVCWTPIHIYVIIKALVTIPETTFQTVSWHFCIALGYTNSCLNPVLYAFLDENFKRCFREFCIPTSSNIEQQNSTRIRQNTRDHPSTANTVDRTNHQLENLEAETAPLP
Method in brief: as §1

Human δ-opioid (DOP) = molecular target: T7, Human δ-opioid (DOP) (Homo sapiens, UniProt P41143); test: Radioligand binding, human δ-opioid (DOP) membranes, FlashPlate, [3H]-Bremazocine; details: compound at 10 μM; for A1 radioligand binding inhibition: human δ-opioid (DOP) membranes; for A1: inhibition of radioligand binding: [3H]-Bremazocine
T7 construct: purchased Perkin Elmer Biosignal
T7 sequence (P41143 whole entry): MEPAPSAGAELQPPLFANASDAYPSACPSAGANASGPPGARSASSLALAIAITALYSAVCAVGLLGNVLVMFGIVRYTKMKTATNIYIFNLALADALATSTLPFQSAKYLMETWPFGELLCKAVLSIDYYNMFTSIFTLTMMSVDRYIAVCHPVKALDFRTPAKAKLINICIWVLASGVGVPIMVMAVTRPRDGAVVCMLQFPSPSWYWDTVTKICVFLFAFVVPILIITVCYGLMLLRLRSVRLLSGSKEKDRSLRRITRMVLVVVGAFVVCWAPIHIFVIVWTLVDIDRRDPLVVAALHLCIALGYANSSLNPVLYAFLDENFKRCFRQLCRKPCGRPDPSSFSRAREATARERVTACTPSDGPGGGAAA
Method in brief: as §1

Mouse urotensin (mUR2) = molecular target: T8, Mouse urotensin (mUR2) (Mus musculus, UniProt Q8VIH9); test: Radioligand binding, mouse urotensin mUR2 membranes, FlashPlate, [125I]-Urotensin II; details: compound at 10 μM; for A11 radioligand binding inhibition: mouse urotensin mUR2 membranes; for A11: inhibition of radioligand binding: [125I]-Urotensin II
T8 construct: purchased Perkin Elmer Biosignal
T8 sequence (Q8VIH9 1-385): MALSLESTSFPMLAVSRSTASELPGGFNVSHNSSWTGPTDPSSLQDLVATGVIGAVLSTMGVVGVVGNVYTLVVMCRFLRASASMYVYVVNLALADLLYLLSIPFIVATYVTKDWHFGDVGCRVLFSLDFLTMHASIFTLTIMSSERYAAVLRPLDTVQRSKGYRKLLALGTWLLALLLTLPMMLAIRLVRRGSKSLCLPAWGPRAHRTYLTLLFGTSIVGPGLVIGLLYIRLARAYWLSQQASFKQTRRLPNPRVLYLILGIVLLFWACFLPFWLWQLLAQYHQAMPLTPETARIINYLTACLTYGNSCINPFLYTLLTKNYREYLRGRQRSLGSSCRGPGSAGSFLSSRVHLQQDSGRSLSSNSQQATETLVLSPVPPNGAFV
Method in brief: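 Cloned mouse urotensin (mUR2) receptor membranes from Perkin Elmer Biosignal were immobilized in FlashPlate microplates using a proprietary coating. Each well got 19.5 μl buffer, then 0.5 μl of DMSO, reference ligand, or compound. Adding 5 μl of [125I]-Urotensin II, diluted to 5× final concentration in binding buffer, started binding. Plates were sealed with TopSeal-A and incubated 1 hour at room temperature in the dark. Wells were counted for 30 seconds each on a TopCount after a 60-second delay, and percentage inhibition was calculated.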

Human neurokinin (NK1) = molecular target: T9, Human neurokinin (NK1) (Homo sapiens, UniProt P25103); test: Radioligand binding, human neurokinin NK1 membranes, filtration, [125I]-Substance P; details: compound at 10 μM; for A8 radioligand binding inhibition: human neurokinin NK1 membranes; for A8: inhibition of radioligand binding: [125I]-Substance P
T9 construct: purchased Perkin Elmer Biosignal
T9 sequence (P25103 whole entry): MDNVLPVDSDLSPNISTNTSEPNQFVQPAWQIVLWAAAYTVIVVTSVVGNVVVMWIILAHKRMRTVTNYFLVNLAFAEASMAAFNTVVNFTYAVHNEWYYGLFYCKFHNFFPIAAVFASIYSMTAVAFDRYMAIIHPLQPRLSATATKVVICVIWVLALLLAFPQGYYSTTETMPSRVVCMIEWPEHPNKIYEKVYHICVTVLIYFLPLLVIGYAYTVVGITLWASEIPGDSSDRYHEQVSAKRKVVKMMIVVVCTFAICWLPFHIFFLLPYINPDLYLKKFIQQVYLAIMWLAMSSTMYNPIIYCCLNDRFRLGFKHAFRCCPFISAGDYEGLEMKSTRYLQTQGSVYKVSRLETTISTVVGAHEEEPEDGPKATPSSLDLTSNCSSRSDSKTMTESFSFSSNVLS
Method in brief: (§2)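 Percent inhibition of radioligand binding measured on recombinant human membranes: NK1 with [125I]-Substance P, KOP with [3H]-Diprenorphine. Incubation 1 h at room temperature, then harvest onto 0.3% PEI-soaked filters, cold Tris-HCl pH 7.4 washes and scintillation counting; non-specific binding from reference ligand wells.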

Human κ-Opioid (KOP) = molecular target: T10, Human κ-Opioid (KOP) (Homo sapiens, UniProt P41145); test: Radioligand binding, human κ-opioid (KOP) membranes, filtration, [3H]-Diprenorphine; details: compound at 10 μM; for A2 radioligand binding inhibition: human κ-opioid (KOP) membranes; for A2: inhibition of radioligand binding: [3H]-Diprenorphine
T10 construct: purchased Perkin Elmer Biosignal
T10 sequence (P41145 whole entry): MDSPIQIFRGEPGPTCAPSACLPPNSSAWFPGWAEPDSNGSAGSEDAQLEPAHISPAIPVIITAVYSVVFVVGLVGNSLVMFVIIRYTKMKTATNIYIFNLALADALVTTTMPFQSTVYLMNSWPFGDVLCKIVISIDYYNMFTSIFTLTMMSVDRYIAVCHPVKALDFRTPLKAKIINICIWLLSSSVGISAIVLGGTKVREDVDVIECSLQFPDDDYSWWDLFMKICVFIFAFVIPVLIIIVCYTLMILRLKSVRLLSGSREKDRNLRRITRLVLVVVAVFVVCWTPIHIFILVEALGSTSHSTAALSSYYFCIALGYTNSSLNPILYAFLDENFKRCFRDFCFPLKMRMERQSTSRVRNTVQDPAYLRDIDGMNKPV
Method in brief: as §2

[2] = molecular target: T11, Human melanin-concentrating hormone (MCH1) (Homo sapiens, UniProt Q99705); test: Radioligand binding, human melanin-concentrating hormone MCH1 membranes, FlashPlate, [125I]-S36057; details: compound at 10 μM; for A6 radioligand binding inhibition: human MCH1 membranes
T11 construct: purchased Perkin Elmer Biosignal
T11 sequence (Q99705 whole entry): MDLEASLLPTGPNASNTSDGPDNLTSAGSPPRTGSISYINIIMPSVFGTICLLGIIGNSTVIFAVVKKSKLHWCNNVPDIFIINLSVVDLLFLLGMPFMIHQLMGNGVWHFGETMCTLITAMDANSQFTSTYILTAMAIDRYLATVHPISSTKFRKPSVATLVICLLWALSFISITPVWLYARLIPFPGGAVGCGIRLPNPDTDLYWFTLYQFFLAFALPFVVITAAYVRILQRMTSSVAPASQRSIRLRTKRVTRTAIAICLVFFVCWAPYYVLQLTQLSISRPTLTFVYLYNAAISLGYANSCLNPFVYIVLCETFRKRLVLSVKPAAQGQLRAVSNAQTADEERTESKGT
Method in brief: as §1

Row | Compound | A9 radioligand binding inhibition ([1]; human NPY-Y1 membranes) | A3 radioligand binding inhibition (Human Melanocortin (MC3)) | A5 radioligand binding inhibition (Human melanocortin (MC5)) | A10 radioligand binding inhibition (Human opioid (ORL1); human ORL1 membranes) | A4 radioligand binding inhibition (Human Melanocortin (MC4)) | A7 radioligand binding inhibition (Human μ-opioid (MOP)) | A1 radioligand binding inhibition (Human δ-opioid (DOP)) | A11 radioligand binding inhibition (Mouse urotensin (mUR2)) | A8 radioligand binding inhibition (Human neurokinin (NK1)) | A2 radioligand binding inhibition (Human κ-Opioid (KOP)) | A6 radioligand binding inhibition [2] | other results
1 | COC[C@H]1OC(OCc2ccc(Cl)cc2)[C@H](NC(=O)CCCNC(=N)N)[C@@H](OCc2ccccc2)[C@@H]1O (stereo partly shown) [compound 36] | − (“−” indicates less than 50% inhibition at 10 μM) | − (“−” indicates less than 50% inhibition at 10 μM) | − (“−” indicates less than 50% inhibition at 10 μM) | − (“−” indicates less than 50% inhibition at 10 μM) | − (“−” indicates less than 50% inhibition at 10 μM) | + (“+” indicates greater than 50% inhibition at 10 μM) | − (“−” indicates less than 50% inhibition at 10 μM) | − (“−” indicates less than 50% inhibition at 10 μM) | + (“+” indicates greater than 50% inhibition at 10 μM) | − (“−” indicates less than 50% inhibition at 10 μM) | − (“−” indicates less than 50% inhibition at 10 μM) | –
2 | COC[C@H]1OC(OCc2ccc(-c3ccccc3)cc2)[C@H](NC(=O)CNC(=N)N)[C@@H](OCc2ccc3ccccc3c2)[C@@H]1O (stereo partly shown) [compound 3] | − (“−” indicates less than 50% inhibition at 10 μM) | − (“−” indicates less than 50% inhibition at 10 μM) | + (“+” indicates greater than 50% inhibition at 10 μM) | − (“−” indicates less than 50% inhibition at 10 μM) | − (“−” indicates less than 50% inhibition at 10 μM) | − (“−” indicates less than 50% inhibition at 10 μM) | − (“−” indicates less than 50% inhibition at 10 μM) | − (“−” indicates less than 50% inhibition at 10 μM) | + (“+” indicates greater than 50% inhibition at 10 μM) | − (“−” indicates less than 50% inhibition at 10 μM) | + (“+” indicates greater than 50% inhibition at 10 μM) | –
3 | CO[C@H]1[C@H](O)[C@@H](COCc2ccc(Cl)cc2)OC(OCc2ccc3ccccc3c2)[C@@H]1NC(=O)CNC(=N)N (stereo partly shown) [compound 78] | − (“−” indicates less than 50% inhibition at 10 μM) | − (“−” indicates less than 50% inhibition at 10 μM) | + (“+” indicates greater than 50% inhibition at 10 μM) | − (“−” indicates less than 50% inhibition at 10 μM) | − (“−” indicates less than 50% inhibition at 10 μM) | − (“−” indicates less than 50% inhibition at 10 μM) | − (“−” indicates less than 50% inhibition at 10 μM) | − (“−” indicates less than 50% inhibition at 10 μM) | + (“+” indicates greater than 50% inhibition at 10 μM) | − (“−” indicates less than 50% inhibition at 10 μM) | − (“−” indicates less than 50% inhibition at 10 μM) | –
4 | COCC1OC(OCCc2ccccc2)C(NC(=O)CCN)C(OCc2ccccc2)C1O (stereo not shown) [compound 216] | – | – | – | – | – | – | – | – | – | – | – | A9: inhibition of radioligand binding ([1]; FlashPlate): − (“−” indicates less than 50% inhibition at 10 μM); A3: inhibition of radioligand binding (Human Melanocortin (MC3); FlashPlate): − (“−” indicates less than 50% inhibition at 10 μM); A5: inhibition of radioligand binding (Human melanocortin (MC5); FlashPlate): − (“−” indicates less than 50% inhibition at 10 μM); A10: inhibition of radioligand binding (Human opioid (ORL1); FlashPlate): − (“−” indicates less than 50% inhibition at 10 μM); A4: inhibition of radioligand binding (Human Melanocortin (MC4); FlashPlate): − (“−” indicates less than 50% inhibition at 10 μM); A7: inhibition of radioligand binding (Human μ-opioid (MOP); FlashPlate): − (“−” indicates less than 50% inhibition at 10 μM); A1: inhibition of radioligand binding (Human δ-opioid (DOP); FlashPlate): − (“−” indicates less than 50% inhibition at 10 μM); A11: inhibition of radioligand binding (Mouse urotensin (mUR2); FlashPlate): − (“−” indicates less than 50% inhibition at 10 μM); A8: inhibition of radioligand binding (Human neurokinin (NK1); filtration): + (“+” indicates greater than 50% inhibition at 10 μM); A2: inhibition of radioligand binding (Human κ-Opioid (KOP); filtration): − (“−” indicates less than 50% inhibition at 10 μM); A6: inhibition of radioligand binding ([2]; [125I]-S36057, FlashPlate): − (“−” indicates less than 50% inhibition at 10 μM)
5 | NCCCC(=O)NC1C(OCc2ccc3ccccc3c2)OC(COCc2ccccc2)C(O)C1OCc1ccccc1 (single isomer, unassigned) [compound 468] | – | – | – | – | – | – | – | – | – | – | – | A9: inhibition of radioligand binding ([1]; human NPY-Y1 membranes): − (“−” indicates less than 50% inhibition at 10 μM); A3: inhibition of radioligand binding (Human Melanocortin (MC3); human MC3 membranes): − (“−” indicates less than 50% inhibition at 10 μM); A5: inhibition of radioligand binding (Human melanocortin (MC5); human MC5 membranes): − (“−” indicates less than 50% inhibition at 10 μM); A10: inhibition of radioligand binding (Human opioid (ORL1); human ORL1 membranes, 10 µM): + (“+” indicates greater than 50% inhibition at 10 μM); A4: inhibition of radioligand binding (Human Melanocortin (MC4); human MC4 membranes, 10 µM): − (“−” indicates less than 50% inhibition at 10 μM); A7: inhibition of radioligand binding (Human μ-opioid (MOP); human MOP membranes, 10 µM): + (“+” indicates greater than 50% inhibition at 10 μM); A1: inhibition of radioligand binding (Human δ-opioid (DOP); human DOP membranes): − (“−” indicates less than 50% inhibition at 10 μM); A11: inhibition of radioligand binding (Mouse urotensin (mUR2); mouse mUR2 membranes): − (“−” indicates less than 50% inhibition at 10 μM); A8: inhibition of radioligand binding (Human neurokinin (NK1); human NK1 membranes): + (“+” indicates greater than 50% inhibition at 10 μM); A2: inhibition of radioligand binding (Human κ-Opioid (KOP); human KOP membranes): − (“−” indicates less than 50% inhibition at 10 μM); A6: inhibition of radioligand binding ([2]; [125I]-S36057, human MCH1 membranes): − (“−” indicates less than 50% inhibition at 10 μM)
